Reference: patent publication US20100120740A1, “PRODRUGS OF FUSED HETEROCYCLIC INHIBITORS OF D-AMINO ACID OXIDASE” (SEPRACOR INC., priority 2008, published 2010)

Test: Rate of hydrolysis of test compounds to 4H-furo[3,2-b]pyrrole-5-carboxylic acid in pH 7.4 and 2.0 aqueous solutions
Type: physicochemical
Settings: HPLC; for Hydrolysis rate at pH 7.4: 0.05 M sodium phosphate buffer pH 7.4, 0.013 mg/mL, over 6 hours; for Hydrolysis rate at pH 2.0: water adjusted with phosphoric acid to pH 2.0, 0.013 mg/mL, over 2 hours
Protocol: 10 mM DMSO solutions of test compounds were diluted with a 0.05 M sodium phosphate buffer (pH 7.4) or water adjusted with phosphoric acid to pH 2.0, with a final concentration of 0.013 mg/mL. Samples were analyzed over either 2 or 6 hours, by HPLC. The amount of test compound and the corresponding acid were determined. The rate of conversion of the test compound was calculated based on formation of the corresponding acid and loss of parent.
The rate of hydrolysis of test compounds to 4H-furo[3,2-b]pyrrole-5-carboxylic acid was evaluated in pH 7.4 aqueous solution over 6 hours, and in pH 2.0 aqueous solution over 2 hours, according to General Procedure 15.

Row | SMILES | Hydrolysis rate at pH 7.4 | Hydrolysis rate at pH 2.0
1 | O=C(OCC(=O)N1CCOCC1)c1cc2occc2[nH]1 [Compound 21a, 2-morpholino-2-oxoethyl 4H-furo[3,2-b]pyrrole-5-carboxylate] | No hydrolysis | No hydrolysis
2 | Cc1oc(=O)oc1COC(=O)c1cc2occc2[nH]1 [Compound 12, (5-methyl-2-oxo-1,3-dioxol-4-yl)methyl 4H-furo[3,2-b]pyrrole-5-carboxylate] | 0.20%/hr | No hydrolysis
3 | CC(OC(=O)c1cc2occc2[nH]1)OC(=O)C(C)C (centres unmarked) [Compound 31b, 1-(isobutyryloxy)ethyl 4H-furo[3,2-b]pyrrole-5-carboxylate] | 3.46%/hr | 
4 | O=C(OCC(=O)N1CCC1)c1cc2occc2[nH]1 [Compound 22a, 2-(azetidin-1-yl)-2-oxoethyl 4H-furo[3,2-b]pyrrole-5-carboxylate] | No hydrolysis | No hydrolysis
5 | CN(C)C(=O)COC(=O)c1cc2occc2[nH]1 [Compound 20, 2-(dimethylamino)-2-oxoethyl 4H-furo[3,2-b]pyrrole-5-carboxylate] | No hydrolysis | No hydrolysis
6 | O=C(OCC1CCCO1)c1cc2occc2[nH]1 (centres unmarked) [Compound 11, (tetrahydrofuran-2-yl)methyl 4H-furo[3,2-b]pyrrole-5-carboxylate] | No hydrolysis | No hydrolysis
7 | CC(OC(=O)OC1CCCCC1)OC(=O)c1cc2occc2[nH]1 (centres unmarked) [Compound 36b, 1-(cyclohexyloxycarbonyloxy)ethyl 4H-furo[3,2-b]pyrrole-5-carboxylate] | 0.21%/hr | 
8 | O=C(OCCN1CCOCC1)c1cc2occc2[nH]1 [Compound 24, 2-morpholinoethyl 4H-furo[3,2-b]pyrrole-5-carboxylate] | No hydrolysis | No hydrolysis
